US6432995B1, “Aromatic heterocyclic compounds and their use as anti-inflammatory agents” (Boehringer Ingelheim Pharmaceuticals, Inc., priority 1997, dated 2002)

- melting point: 223 to 225 °C
SMILES: Cc1ccc(-n2nc(C(C)(C)C)cc2NC(=O)Nc2ccc(F)cc2)cc1C [Example 32, 1-(5-tert-Butyl-2-(3,4-dimethylphenyl)-2H-pyrazol-3-yl)-3-(4-fluorophenyl)urea]
